Test system: T1, glutaminase free asparaginase from Enterobacter cloacae
T1 construct: gene ansB; native, purified from culture supernatant (ammonium sulphate, DEAE-cellulose, Sephadex G-100); EC 3.5.1.1
Assay: Nesslerization (ammonia release), Lineweaver-Burk plot
Format: biochemical
Conditions: 0.05 M phosphate buffer pH 7.5, 37°C; L-asparagine 0.2–24 mM

## NC(=O)C[C@H](N)C(=O)O [L-asparagine]
  Km: 1580 µM
